The results in this text go back to PubChem BioAssay (NCI).

Among the test systems are ACHN renal; HCT-15 colon; HL-60(TB) leukemia; K-562 leukemia; NCI/ADR-RES ovarian; OVCAR-3 ovarian; SF-295 CNS; SNB-75 CNS; SR leukemia; UO-31 renal.
Common to all, as to experiment: growth of human tumour cells (NCI), 48 h

SMILES strings stand for the structures. “And” between values parts separate entries of the source, which are not always exact repeats. Equal entries are not always repeated.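 Dose response: 5 concentrations. Exposure: 48 h. Format: 96-well plates. Endpoint: linear interpolation; highest concentration if not reached. GI50 is the concentration that inhibits growth by half. The concentration for full growth arrest is given as TGI.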

Take `Cc1cccc2c1NC(=O)[C@@]21[C@H](C(=O)c2ccccc2)[C@]2(C(=O)Nc3ccccc32)[C@H]2CCCN21`: the GI50 with ACHN renal was 19.6 µM; in the assay on HCT-15 colon, 25.1 µM; in the assay on HL-60(TB) leukemia, 56.8 µM; with K-562 leukemia, 33.1 µM; with NCI/ADR-RES ovarian, 20.4 µM; with OVCAR-3 ovarian, 15.5 µM. In addition, the GI50 is 74.6 µM with SF-295 CNS, 15 µM in the assay on SNB-75 CNS, 15.4 µM in the assay with SR leukemia and 17.6 µM in the assay on UO-31 renal. Further, the TGI in the assay on ACHN renal was 73 µM; in the assay with HCT-15 colon, greater than 100 µM; with HL-60(TB) leukemia, greater than 100 µM; in the assay with K-562 leukemia it was greater than 100 µM; in the assay with NCI/ADR-RES ovarian, 71.5 µM; in the assay with OVCAR-3 ovarian, greater than 100 µM. Besides, the TGI in the assay with SF-295 CNS is greater than 100 µM; in the assay with SNB-75 CNS, 63.4 µM; with SR leukemia it was greater than 100 µM; with UO-31 renal, greater than 100 µM.

Consider `O=c1ccccc(-c2ccc(-c3ccco3)cc2)c1O`, for which the GI50 was 0.437 µM with ACHN renal; 0.373 µM with HCT-15 colon; 0.441 µM in the assay with HL-60(TB) leukemia; 0.603 µM in the assay with K-562 leukemia; 0.388 µM with NCI/ADR-RES ovarian; 0.415 µM in the assay on OVCAR-3 ovarian. Also, the GI50 is 0.555 µM with SF-295 CNS, 0.994 µM in the assay on SNB-75 CNS, 0.581 µM in the assay on SR leukemia and 0.598 µM with UO-31 renal. In addition, the TGI in the assay with ACHN renal was 12 µM; in the assay with HCT-15 colon, 41.2 µM; with HL-60(TB) leukemia, 2.69 µM; in the assay with K-562 leukemia it was greater than 100 µM; with NCI/ADR-RES ovarian, 4.65 µM; in the assay on OVCAR-3 ovarian it was 26.3 µM. Also, the TGI in the assay with SF-295 CNS was 13.6 µM; in the assay with SNB-75 CNS, greater than 100 µM; with SR leukemia it was 19.8 µM; with UO-31 renal it was 8.42 µM.

As for `C[C@@H](Oc1cc(NS(=O)(=O)N2CCC2)nc(SCc2cccc(F)c2F)n1)[C@@H](O)CO`, the GI50 with ACHN renal, in the assay with HCT-15 colon, in the assay with HL-60(TB) leukemia, in the assay on K-562 leukemia, in the assay with NCI/ADR-RES ovarian and in the assay with OVCAR-3 ovarian was greater than 100 µM in each case. Moreover, the GI50 with SF-295 CNS, in the assay on SNB-75 CNS, in the assay with SR leukemia and with UO-31 renal was greater than 100 µM in each case. The TGI in the assay with ACHN renal, in the assay with HCT-15 colon, in the assay with HL-60(TB) leukemia, with K-562 leukemia, in the assay on NCI/ADR-RES ovarian and in the assay with OVCAR-3 ovarian was greater than 100 µM in each case. The TGI with SF-295 CNS, in the assay with SNB-75 CNS, in the assay with SR leukemia and in the assay with UO-31 renal was greater than 100 µM each time.

`CC1OC(O[C@H]2/C=C/C=C/C=C/C=C/C=C/C=C/C=C/[C@H](C)[C@@H](O)[C@@H](C)[C@H](C)OC(=O)C[C@H](O)C[C@H](O)CC[C@@H](O)[C@H](O)C[C@H](O)C[C@]3(O)C[C@H](O)[C@@H](C(=O)O)[C@H](C2)O3)C(O)C(N)C1O` (stereo partly specified): the GI50 in the assay with ACHN renal is 6.47 µM; in the assay with HCT-15 colon it was 44.7 µM; with HL-60(TB) leukemia, 3.29 µM; in the assay with NCI/ADR-RES ovarian, 24.9 µM; with SF-295 CNS, greater than 61.3 µM; in the assay on SNB-75 CNS it was 32.7 µM. The TGI was 20.5 µM in the assay on ACHN renal; 60.9 µM with HCT-15 colon; 30.6 µM with HL-60(TB) leukemia; greater than 100 µM with K-562 leukemia; 56.5 µM in the assay on NCI/ADR-RES ovarian; 27.2 µM with OVCAR-3 ovarian. Further, the TGI with SF-295 CNS is greater than 72.8 µM; in the assay with SNB-75 CNS it was 61.7 µM; with SR leukemia it was 44.8 µM; in the assay on UO-31 renal, 4.27 µM.

As for `Cc1ccc2c(N/N=C\c3ccco3)cc(C)nc2n1`, the GI50 is 3.37 µM with ACHN renal; 2.89 µM in the assay on HCT-15 colon; 1.99 µM in the assay on HL-60(TB) leukemia; 3.02 µM in the assay on K-562 leukemia; 6.25 µM in the assay with NCI/ADR-RES ovarian; 2.81 µM with OVCAR-3 ovarian. The GI50 with SF-295 CNS was 3.31 µM; in the assay with SNB-75 CNS, 11.4 µM; in the assay with SR leukemia it was 2.15 µM; in the assay with UO-31 renal, 2 µM. The TGI with ACHN renal amounted to 12.4 µM; with HCT-15 colon, 12 µM; with HL-60(TB) leukemia it was 4.07 µM; in the assay on K-562 leukemia, 11.2 µM; in the assay on NCI/ADR-RES ovarian, 26.1 µM; with OVCAR-3 ovarian, 7.49 µM. For the same compound, the TGI came to 14.3 µM in the assay on SF-295 CNS, 26.4 µM in the assay on SNB-75 CNS, 6.07 µM with SR leukemia and 5.24 µM with UO-31 renal.

Regarding `COc1cc2c(Nc3ccc(Br)cc3F)ncnc2cc1OCC1CCN(C)CC1`, the GI50 in the assay with ACHN renal was 0.471 µM and 0.556 µM; in the assay with HCT-15 colon, 2.27 µM and 2.95 µM; in the assay with HL-60(TB) leukemia, 2.65 µM and 3.14 µM; in the assay on K-562 leukemia, 0.436 µM and 0.651 µM; in the assay on NCI/ADR-RES ovarian, 5.58 µM and > 10 µM; with OVCAR-3 ovarian, 1.65 µM and 2.58 µM. Further, the GI50 in the assay on SF-295 CNS was 5.39 µM and > 10 µM; with SNB-75 CNS, 0.737 µM and 1.13 µM; with SR leukemia, 2.55 µM and 2.89 µM; in the assay on UO-31 renal it was 0.573 µM and 0.479 µM. For the same compound, the TGI was 11.4 µM and > 10 µM with ACHN renal; 11.5 µM and > 10 µM with HCT-15 colon; 7.56 µM and > 10 µM with HL-60(TB) leukemia; 11.8 µM and > 10 µM in the assay on K-562 leukemia; 19.1 µM and > 10 µM in the assay on NCI/ADR-RES ovarian; 14.2 µM and > 10 µM with OVCAR-3 ovarian. In addition, the TGI is 15.3 µM and > 10 µM in the assay on SF-295 CNS; 5.79 µM and > 10 µM in the assay on SNB-75 CNS; 8.29 µM and > 10 µM with SR leukemia; 2.5 µM and 5.78 µM in the assay on UO-31 renal.

In the case of `O=C(O[C@H]1CN[C@H](C#Cc2cc3ncnc(Nc4ccc(OCc5cccc(F)c5)c(Cl)c4)c3s2)C1)N1CCOCC1`, the GI50 was 4.27 µM with ACHN renal; 8.09 µM in the assay with HCT-15 colon; 6.11 µM with HL-60(TB) leukemia; 11.1 µM with K-562 leukemia; 6.3 µM in the assay on NCI/ADR-RES ovarian; 4.12 µM with OVCAR-3 ovarian. Also, the GI50 was 9 µM in the assay on SF-295 CNS, 7.73 µM with SNB-75 CNS, 8.01 µM in the assay on SR leukemia and 4.41 µM in the assay with UO-31 renal. The TGI in the assay with ACHN renal was greater than 25 µM; in the assay on HCT-15 colon, greater than 25 µM; with HL-60(TB) leukemia, 15.1 µM; in the assay on K-562 leukemia, greater than 25 µM; in the assay on NCI/ADR-RES ovarian, greater than 25 µM; in the assay on OVCAR-3 ovarian, 11.1 µM. Moreover, the TGI in the assay on SF-295 CNS was greater than 25 µM; in the assay with SNB-75 CNS, greater than 25 µM; with SR leukemia, greater than 23.7 µM; with UO-31 renal it was greater than 15.8 µM.

For `N#C/C(=C/C=C/c1ccccc1)S(=O)c1ccccc1` (stereo unspecified), the GI50 was 0.2 µM with ACHN renal; 0.211 µM in the assay on HCT-15 colon; 0.288 µM in the assay with HL-60(TB) leukemia; 0.32 µM in the assay on K-562 leukemia; 0.369 µM in the assay with NCI/ADR-RES ovarian; 0.307 µM in the assay with OVCAR-3 ovarian. Also, the GI50 in the assay on SF-295 CNS is 1.44 µM; in the assay with SNB-75 CNS, 0.904 µM; in the assay with SR leukemia it was 0.281 µM; in the assay on UO-31 renal, 0.4 µM. The TGI is 0.462 µM in the assay on ACHN renal; 0.638 µM in the assay on HCT-15 colon; 2.25 µM in the assay with HL-60(TB) leukemia; 90.8 µM with K-562 leukemia; 13.7 µM in the assay on NCI/ADR-RES ovarian; 1.13 µM in the assay on OVCAR-3 ovarian. Moreover, the TGI was determined as 3.14 µM with SF-295 CNS, 3.01 µM with SNB-75 CNS, 4.51 µM in the assay on SR leukemia and 3.08 µM with UO-31 renal.

`N/C(=N\c1nc2ccccc2s1)NC(=O)Nc1ccccc1Cl`: the GI50 with ACHN renal was 0.227 µM; in the assay with HCT-15 colon, 0.0643 µM; in the assay with HL-60(TB) leukemia, 0.082 µM; with K-562 leukemia it was 0.0366 µM; in the assay on NCI/ADR-RES ovarian, 0.0643 µM; in the assay with OVCAR-3 ovarian it was 0.0857 µM. Moreover, the GI50 in the assay with SF-295 CNS is 0.106 µM; in the assay on SNB-75 CNS, 0.0336 µM; in the assay with SR leukemia it was 0.0411 µM; in the assay on UO-31 renal it was 0.197 µM. The TGI is 7.17 µM in the assay with ACHN renal; 18.9 µM in the assay on HCT-15 colon; 0.688 µM in the assay on HL-60(TB) leukemia; greater than 43.5 µM in the assay on K-562 leukemia; 8.83 µM with NCI/ADR-RES ovarian; 0.594 µM with OVCAR-3 ovarian. Further, the TGI in the assay with SF-295 CNS was 1.74 µM; in the assay on SNB-75 CNS it was 0.214 µM; with SR leukemia, greater than 32.7 µM; in the assay on UO-31 renal it was 21.2 µM.

As to `CN(C)c1ccc2cc(-c3cc4c(oc3=O)-c3ccccc3OC4O)c(=O)oc2c1` (stereo unspecified), the GI50 in the assay with ACHN renal was 4.29 µM; with HCT-15 colon, 3.81 µM; in the assay with HL-60(TB) leukemia it was 5.7 µM; in the assay with K-562 leukemia, 5.2 µM; in the assay on NCI/ADR-RES ovarian, 3.6 µM; with OVCAR-3 ovarian it was 5.9 µM. Further, the GI50 in the assay with SF-295 CNS was 3.59 µM; in the assay with SNB-75 CNS, 5.96 µM; in the assay with SR leukemia it was 3.19 µM; with UO-31 renal, 5.09 µM. The TGI in the assay on ACHN renal was 12.5 µM; with HCT-15 colon it was 8.9 µM; in the assay with HL-60(TB) leukemia it was greater than 25 µM; in the assay on K-562 leukemia, greater than 25 µM; in the assay with NCI/ADR-RES ovarian it was 17.1 µM; with OVCAR-3 ovarian it was greater than 25 µM. The TGI in the assay with SF-295 CNS is 10.3 µM; with SNB-75 CNS, 24 µM; in the assay with SR leukemia it was 9.96 µM; in the assay on UO-31 renal it was 12.7 µM.

With `C=C1SC(=Nc2ccccc2Cl)N(C(=O)c2sc3ccccc3c2Cl)C1(C)C`, the GI50 in the assay with ACHN renal was 3.24 µM; with HCT-15 colon, 4.94 µM; in the assay with HL-60(TB) leukemia it was 9.3 µM; in the assay on K-562 leukemia it was 4.51 µM; in the assay with NCI/ADR-RES ovarian, 3.71 µM; with OVCAR-3 ovarian, 7.55 µM. Further, the GI50 in the assay with SF-295 CNS was 2.07 µM; with SNB-75 CNS it was 6.41 µM; in the assay with SR leukemia, 7.1 µM; in the assay on UO-31 renal, 3.64 µM. Further, the TGI with ACHN renal is greater than 46 µM; in the assay on HCT-15 colon, greater than 57.5 µM; in the assay on HL-60(TB) leukemia, greater than 100 µM; with K-562 leukemia, greater than 37.4 µM; in the assay on NCI/ADR-RES ovarian it was greater than 53 µM; in the assay on OVCAR-3 ovarian, greater than 56.3 µM. Also, the TGI was 10.7 µM in the assay on SF-295 CNS, 97.4 µM in the assay on SNB-75 CNS, greater than 39.6 µM in the assay with SR leukemia and greater than 100 µM in the assay with UO-31 renal.
